Results from patent publication US12377095B2, “Use of ligustrazine nitrone derivatives in treatment and prevention of diabetic complication diseases” (QINGDAO HAILAN PHARMACEUTICALS CO., LTD., priority 2019, dated 2025).

What was measured:
[1] = system: diabetic neuropathy model rats; experiment: Thermal radiation stimulation in diabetic neuropathy model rats; assay type: in vivo, rat; conditions: TBN 30 mg/kg twice a day, 4 weeks of administration (8 weeks after STZ), P<0.05
Protocol: Modeling method: STZ was weighed and transferred to a centrifuge tube, wrapped with aluminum foil, kept away from light, and stored at −20° C. STZ sodium citrate solution is prepared when it is in need to use. The rats were fasted without water for 12 hours before injection. After weighing, the rats were injected with 55 mg/kg STZ intraperitoneally (STZ needs to be injected quickly, and the injection was completed within 10 minutes), and then returned to the cage to ensure that the rats had sufficient drinking water for 24 hours. Rats were injected with an equal volume of citrate buffer (pH 4.5). Four weeks after STZ injection, blood was collected from the tail vein, and the rats with blood glucose less than 16.7 mmol/L were eliminated; the taillick threshold temperature was increased, and the mechanical withdrawal threshold (MWT) was decreased, as the standard of a successful DPN model.
The animals were randomly divided into 3 groups (n=7), namely the normal control group, the model group, and the TBN (30 mg/kg) group. The normal group and the model group were injected with an equal volume of normal saline, and TBN was administered twice a day (fixed at 9:00-10:00 am and 3:00-4:00 pm), continuously for 4 weeks. […]

db/db mice [2] = experiment: Serum EPO content of db/db mice; assay type: in vivo, mouse; design: serum EPO content: unit not given here; conditions: for serum EPO content: 6 weeks, db/db group 257.19±67.80 ng/L
Excerpt: (§1) db/db mice are congenital obese type 2 DKD mice with spontaneous mutations in the leptin receptor (Leptin receptor, Lepr) due to a point mutation in the leptin receptor gene GT located on chromosome 4. The course of polyphagia, polyuria, diabetes and hyperglycemia is similar to that of humans, and it is currently the most widely used type 2 spontaneous animal model of DKD. The db/db mice have a series of complications with the aggravation of diabetes. The main pathological changes of renal tissue are the expansion of the glomerular mesangial interstitium, the thickening of the glomerular basement membrane, and the excessive accumulation of extracellular matrix. However, the glomerular mesangium of db/db mice changes relatively slowly, and the glomerular mesangium will not be dissolved or nodular glomerulosclerosis, and there is no progressive renal insufficiency.
(§2) Six-week-old db/db mice were purchased, and start the administration after adaptive feeding for 1 week (i.e., 7-week-old). TBN is administered twice a day (fixed by starting from 9:00-10:00 am and 3:00-4:00 pm, with an interval of 6 hours), and the positive control drug Losartan was administered once a day (fixed at 9:00-10:00 am) for 6 weeks.
At the end of the experiment, after rats were anesthetized, the blood was taken from the abdominal aorta, allowed to stand for 1 h, centrifuged at 3000 rmp for 10 min and with the supernatant collected, and serum erythropoietin levels were measured according to the kit instructions.

[3] = system: cisplatin-induced C57BL/6J mice; experiment: Hepcidin level in cisplatin-induced renal anemia C57BL/6J mice; assay type: in vivo, mouse; conditions: 60 mg/kg twice/day, 4 weeks, P<0.05
Protocol: Modeling method: the animals were randomly divided into 5 groups, i.e., normal control group, model group, three treatment groups, wherein the normal control group was injected with equal volume of normal saline, the model group and three treatment groups were intraperitoneally injected with cisplatin (CDDP) 5 mg/kg once a week, for 4 weeks.
The route of administration is intragastrical. TBN is administered twice a day (fixed at 9:00-10:00 am and 3:00-4:00 pm), and Roxadustat is administered once every two days (fixed at 9:00-10:00 am), for 4 weeks.
Hepcidin is a cysteine-rich antibacterial polypeptide synthesized and secreted by the liver. It plays a negative regulatory role in the regulation of iron balance in the body and can be used to indirectly evaluate the symptoms of anemia in mice. […] Cisplatin and other chemotherapeutic drugs can cause iron regulation imbalance in mice, and TBN administration can reduce the expression level of iron regulation in the body, and thus can be used to treat cancer complicated renal anemia.

STZ-induced DKD rats [4] = experiment: Masson staining, interstitial fibrosis index, STZ-induced DKD rats; assay type: in vivo, rat
Protocol: (§3) Before the injection, the rats were fasted for 12 hours without water. After weighing, the rats were injected with 55 mg/kg STZ intraperitoneally (STZ needs to be injected quickly, and the injection was completed within 10 minutes), and then returned to the cage to ensure that the rats had sufficient drinking water for 24 hours. Rats were injected with an equal volume of citrate buffer (pH 4.5). After STZ injection for 3 weeks, blood was collected from the tail vein, and blood glucose ≥16.7 mmol/L was used as the criteria for the standard of the rats.
(§4) The route of administration is intragastric administration. TBN was administered twice a day (fixed at 9:00-10:00 am and 3:00-4:00 pm), and Losartan was administered once a day (fixed at 9:00-10:00 am) continuously for 6 weeks.
At the end of the experiment, the kidney tissues were quickly separated, fixed with 4% paraformaldehyde and embedded in paraffin, serially sliced, 5 μm each, dried at 37° C. for 1 h, and then subjected to Masson staining. The process is briefly as follows: paraffin sections are taken out of the 65° C. oven and immediately put in xylene for dewaxing and gradient alcohol rehydration, according to the kit instructions, add reagent A (a mixture of equal amounts of A1 and A2) for dyeing for 8 min; then use Reagent B differentiates and reagent C turns blue; reagent D stains for 7 min; reagent E washes for 1 min; reagent F washes for 1 min; reagent G stains for 1 min; dehydrated with 95% ethanol and absolute ethanol, transparent xylene, sealed with neutral gum piece.

STZ-induced DKD rats [5] = experiment: Serum iron content of STZ-induced DKD rats; assay type: in vivo, rat
Protocol: as §3, §4
At the end of the experiment, after rats were anesthetized, blood was taken from the abdominal aorta. After standing for 1 hour, the rats were centrifuged at 3000 rpm for 10 minutes and stored in aliquots at −80° C. An automatic biochemical analyzer was used to detect the content of iron ions in the serum.

db/db mice [6] = experiment: Serum iron content of db/db mice; assay type: in vivo, mouse; design: iron content in the serum: unit not given here; conditions: for iron content in the serum: 6 weeks, db/db model group 28.13±4.46
Excerpt: as §1, §2
At the end of the experiment, serum iron content was measured by using automatic biochemical analyzer.

SMILES: Cc1nc(C)c(/C=[N+](\[O-])C(C)(C)C)nc1C [TBN]
- pain threshold of heat stimulation (hindlimb lifting latency) vs model group [1]: increase
- serum EPO content (db/db mice [2]; 10 mg/kg): 265.04±79.32
- serum EPO content (db/db mice [2]; 30 mg/kg): 288.80±36.78
- increase in serum EPO content compared with positive control drug (db/db mice [2]; each dose group of TBN): stronger than that of the positive control drug
- serum EPO level (db/db mice [2]; spontaneous db/db mice, TBN administration): tendency to increase
- level of iron regulation (hepcidin) vs model group [3]: significantly reduced
- interstitial fibrosis index (STZ-induced DKD rats [4]; 60 mg/kg, P<0.01): improved the most significantly
- interstitial fibrosis index (STZ-induced DKD rats [4]; TBN treatment groups (10, 30, 60 mg/kg), dose-dependent): decreased
- increase in serum iron content (STZ-induced DKD rats [5]; TBN high dose group, P<0.05 vs Vehicle): the most significant
- serum iron content (STZ-induced DKD rats [5]; each administration group of TBN (10, 30, 60 mg/kg), dose-dependent): increased
- iron content in the serum (db/db mice [6]; 10 mg/kg): 30.84±5.92
- iron content in the serum (db/db mice [6]; 30 mg/kg): 36.20±11.89
- effect of increasing iron ions compared with positive control drug (db/db mice [6]; each dose group of TBN vs Losartan): stronger than the positive control drug group
